Laboratory results published in ChEMBL document CHEMBL1201862, “PubChem BioAssay data set” (2004).
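Briefly, cells in 96-well plates were exposed to five compound concentrations for 48 h, and endpoints were estimated by linear interpolation. GI50 = concentration required for 50% inhibition of growth.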 Active and inactive are the calls of the source. Rule as the data show it: active = GI50 up to about 1.1 µM and inactive = higher.

Assays:
Test in all cases: NCI-60 cell line screen, 48 h
786-0 = test system: 786-0
A498 = test system: A498
A549 = test system: A549
ACHN = test system: ACHN
CAKI-1 = test system: CAKI-1
CCRF-CEM = test system: CCRF-CEM
COLO 205 = test system: COLO 205
DMS-273 = test system: DMS-273
EKVX = test system: EKVX
HCT-116 = test system: HCT-116
HCT-15 = test system: HCT-15
HL-60 = test system: HL-60
HOP-18 = test system: HOP-18
HOP-62 = test system: HOP-62
HOP-92 = test system: HOP-92
HT-29 = test system: HT-29
IGROV-1 = test system: IGROV-1
K562 = test system: K562
KM-20L2 = test system: KM-20L2
KM12 = test system: KM12
LOX IMVI = test system: LOX IMVI
LXFL 529 = test system: LXFL 529
M14 = test system: M14
MOLT-4 = test system: MOLT-4
Malme-3M = test system: Malme-3M
NCI-H226 = test system: NCI-H226
NCI-H23 = test system: NCI-H23
NCI-H460 = test system: NCI-H460
NCI-H522 = test system: NCI-H522
OVCAR-4 = test system: OVCAR-4
OVCAR-5 = test system: OVCAR-5
OVCAR-8 = test system: OVCAR-8
RPMI-8226 = test system: RPMI-8226
RXF 393 = test system: RXF 393
SF-268 = test system: SF-268
SF-295 = test system: SF-295
SF-539 = test system: SF-539
SK-MEL-28 = test system: SK-MEL-28
SK-MEL-2 = test system: SK-MEL-2
SK-MEL-5 = test system: SK-MEL-5
SK-OV-3 = test system: SK-OV-3
SN12C = test system: SN12C
SNB-19 = test system: SNB-19
SNB-75 = test system: SNB-75
SNB-78 = test system: SNB-78
SW-620 = test system: SW-620
TK-10 = test system: TK-10
U-251 = test system: U-251
UACC-257 = test system: UACC-257
UACC-62 = test system: UACC-62
UO-31 = test system: UO-31
XF498 = test system: XF498
DLD-1 = test system: DLD-1
DMS-114 = test system: DMS-114
HCC 2998 = test system: HCC 2998
M19-MEL = test system: M19-MEL
OVCAR-3 = test system: OVCAR-3
SR = test system: SR

For `COc1ccc(/C=C2\C(=O)Nc3ccccc32)cc1OC`, the GI50 (786-0) was 33.1 µM (inactive), the GI50 (A498) was > 100 µM (inactive) and the GI50 (A549) was > 100 µM (inactive). The GI50 (ACHN) was > 100 µM (inactive), the GI50 (CAKI-1) was > 100 µM (inactive) and the GI50 (CCRF-CEM) was > 100 µM (inactive). The GI50 (COLO 205) was > 100 µM (inactive), the GI50 (DMS-273) was 64.7 µM (inactive) and the GI50 (EKVX) was > 100 µM (inactive). For the same compound, the GI50 (HCT-116) was > 100 µM (inactive), the GI50 (HCT-15) was 53 µM and the GI50 (HL-60) was 46.7 µM (inactive). The GI50 (HOP-18) was > 100 µM (inactive), the GI50 (HOP-62) was > 100 µM (inactive) and the GI50 (HOP-92) was 44.6 µM (inactive). For the same compound, the GI50 (HT-29) was > 100 µM (inactive), the GI50 (IGROV-1) was > 100 µM (inactive) and the GI50 (K562) was 44.7 µM (inactive). The GI50 (KM-20L2) was > 100 µM (inactive), the GI50 (KM12) was 85.7 µM (inactive) and the GI50 (LOX IMVI) was 45.3 µM (inactive). The GI50 (LXFL 529) was 58.1 µM (inactive), the GI50 (M14) was > 100 µM (inactive) and the GI50 (MOLT-4) was > 100 µM (inactive). The GI50 (Malme-3M) was > 100 µM (inactive), the GI50 (NCI-H226) was > 100 µM (inactive) and the GI50 (NCI-H23) was > 100 µM (inactive). The GI50 (NCI-H460) was 78.9 µM (inactive), the GI50 (NCI-H522) was 79.3 µM (inactive) and the GI50 (OVCAR-4) was 97.3 µM (inactive). For the same compound, the GI50 (OVCAR-5) was > 100 µM (inactive), the GI50 (OVCAR-8) was > 100 µM (inactive) and the GI50 (RPMI-8226) was 23.1 µM (inactive). For the same compound, the GI50 (RXF 393) was > 100 µM (inactive), the GI50 (SF-268) was > 100 µM (inactive) and the GI50 (SF-295) was > 100 µM (inactive). The GI50 (SF-539) was 40.6 µM (inactive), the GI50 (SK-MEL-28) was > 100 µM (inactive) and the GI50 (SK-MEL-2) was > 100 µM (inactive). The GI50 (SK-MEL-5) was 64.4 µM (inactive), the GI50 (SK-OV-3) was 32 µM (inactive) and the GI50 (SN12C) was > 100 µM (inactive). For the same compound, the GI50 (SNB-19) was 38.5 µM (inactive), the GI50 (SNB-75) was 24.5 µM (inactive) and the GI50 (SNB-78) was 37.7 µM (inactive). The GI50 (SW-620) was 45.1 µM (inactive), the GI50 (TK-10) was > 100 µM (inactive) and the GI50 (U-251) was 28.9 µM (inactive). For the same compound, the GI50 (UACC-257) was > 100 µM (inactive), the GI50 (UACC-62) was > 100 µM (inactive) and the GI50 (UO-31) was 86.3 µM (inactive). The GI50 (XF498) was > 100 µM (inactive).
With `C=CCC12CCC(=O)[C@@]1(C)CC=C(O)C2=O` (stereo partly specified) the GI50 (786-0) was > 100 µM (inactive), the GI50 (A498) was > 100 µM (inactive) and the GI50 (A549) was > 100 µM (inactive). For the same compound, the GI50 (ACHN) was > 100 µM (inactive), the GI50 (CAKI-1) was > 100 µM (inactive) and the GI50 (CCRF-CEM) was > 100 µM (inactive). The GI50 (COLO 205) was > 100 µM (inactive), the GI50 (DLD-1) was > 100 µM (inactive) and the GI50 (DMS-114) was > 100 µM (inactive). For the same compound, the GI50 (DMS-273) was > 100 µM (inactive), the GI50 (EKVX) was > 100 µM (inactive) and the GI50 (HCC 2998) was > 100 µM (inactive). For the same compound, the GI50 (HCT-116) was > 100 µM (inactive), the GI50 (HCT-15) was over 100 µM and the GI50 (HL-60) was > 100 µM (inactive). For the same compound, the GI50 (HOP-18) was > 100 µM (inactive), the GI50 (HOP-62) was > 100 µM (inactive) and the GI50 (HOP-92) was > 100 µM (inactive). For the same compound, the GI50 (HT-29) was > 100 µM (inactive), the GI50 (IGROV-1) was > 100 µM (inactive) and the GI50 (KM-20L2) was > 100 µM (inactive). For the same compound, the GI50 (KM12) was > 100 µM (inactive), the GI50 (LOX IMVI) was > 100 µM (inactive) and the GI50 (LXFL 529) was > 100 µM (inactive). For the same compound, the GI50 (M14) was > 100 µM (inactive), the GI50 (M19-MEL) was > 100 µM (inactive) and the GI50 (MOLT-4) was > 100 µM (inactive). For the same compound, the GI50 (Malme-3M) was > 100 µM (inactive), the GI50 (NCI-H226) was > 100 µM (inactive) and the GI50 (NCI-H460) was > 100 µM (inactive). For the same compound, the GI50 (NCI-H522) was > 100 µM (inactive), the GI50 (OVCAR-3) was > 100 µM (inactive) and the GI50 (OVCAR-4) was > 100 µM (inactive). For the same compound, the GI50 (OVCAR-5) was > 100 µM (inactive), the GI50 (OVCAR-8) was > 100 µM (inactive) and the GI50 (RPMI-8226) was > 100 µM (inactive). The GI50 (RXF 393) was > 100 µM (inactive), the GI50 (SF-268) was > 100 µM (inactive) and the GI50 (SF-295) was > 100 µM (inactive). For the same compound, the GI50 (SF-539) was > 100 µM (inactive), the GI50 (SK-MEL-28) was > 100 µM (inactive) and the GI50 (SK-MEL-5) was > 100 µM (inactive). For the same compound, the GI50 (SK-OV-3) was > 100 µM (inactive), the GI50 (SN12C) was > 100 µM (inactive) and the GI50 (SNB-19) was > 100 µM (inactive). For the same compound, the GI50 (SNB-75) was > 100 µM (inactive), the GI50 (SNB-78) was > 100 µM (inactive) and the GI50 (SR) was > 100 µM (inactive). For the same compound, the GI50 (SW-620) was > 100 µM (inactive), the GI50 (TK-10) was > 100 µM (inactive) and the GI50 (U-251) was > 100 µM (inactive). For the same compound, the GI50 (UACC-257) was > 100 µM (inactive), the GI50 (UACC-62) was > 100 µM (inactive) and the GI50 (UO-31) was > 100 µM (inactive).
